From the NIST ThermoML archive (doi:10.1016/j.fluid.2015.10.035)
Numbers after ± are expanded uncertainties.

Key:
[1] = 293.15 K; 101.33 kPa; Liquid; Vibrating tube method
[2] = Boiling temperature at pressure P; conditions: 101.3 kPa; Liquid; Closed cell (Static) method
[3] = refractive index (Na D-line) (dimensionless); conditions: 293.15 K; 101.33 kPa; Liquid; Standard Abbe refractometry

mass density [1]	Boiling temperature at pressure P [2]	refractive index [3]	SMILES
782.1 ± 0.4 kg/m3	81.44 ± 0.1 °C	1.3439 ± 0.0004	CC#N [acetonitrile]
786 ± 0.4 kg/m3	82.34 ± 0.1 °C	1.3773 ± 0.0004	CC(C)O [propan-2-ol]
